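Grown in 96-well plates, cells were treated for 48 hours with each compound at five concentrations. Insufficient inhibition: endpoint recorded as highest concentration tested. GI50 is the concentration that inhibits growth by half.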 Active and inactive are the calls of the source. No stated cut-off is given here; in the data, active = GI50 up to about 1.1 µM and inactive = higher.
Assays:
Assay in all cases: NCI anticancer screen, dose series, 48 h
786-0 = test system: 786-0
A549 = test system: A549
ACHN = test system: ACHN
CAKI-1 = test system: CAKI-1
HOP-92 = test system: HOP-92
KM12 = test system: KM12
MCF7 = test system: MCF7
MDA-MB-231 = test system: MDA-MB-231
MOLT-4 = test system: MOLT-4
PC-3 = test system: PC-3
SF-268 = test system: SF-268
SF-295 = test system: SF-295
SN12C = test system: SN12C
SNB-75 = test system: SNB-75
SR = test system: SR
UACC-257 = test system: UACC-257
BT-549 = test system: BT-549
COLO 205 = test system: COLO 205
OVCAR-3 = test system: OVCAR-3
HL-60 = test system: HL-60

Measured: GI50

NC(=O)C(N)CC12CC3CC(CC(C3)C1)C2 (centres undefined)
inactive: 786-0 22.3 µM | A549 45.6 µM | ACHN 32.4 µM | CAKI-1 27.3 µM | HOP-92 15.5 µM | KM12 20.1 µM | MCF7 20 µM | MDA-MB-231 14 µM | MOLT-4 21 µM | PC-3 18.2 µM | SF-268 22.4 µM | SF-295 23.3 µM | SN12C 21 µM | SNB-75 32.7 µM | SR 17.2 µM | UACC-257 27.9 µM

N#CC(C(=O)c1cccnc1Cl)c1nc2cc(C(F)(F)F)ccc2s1 (centres undefined)
inactive: 786-0 88.9 µM | A549 > 100 µM | ACHN > 100 µM | BT-549 37.4 µM | CAKI-1 > 100 µM | COLO 205 44.2 µM | HOP-92 12.4 µM | KM12 58.9 µM | MDA-MB-231 54 µM | MOLT-4 > 100 µM | OVCAR-3 > 100 µM | SF-268 64.9 µM | SF-295 27.7 µM | SN12C 27.7 µM | SNB-75 25.3 µM | UACC-257 75 µM

CN1C(=O)N(c2ccccc2)C2(CCN(CC3COc4ccccc4O3)CC2)C1=O (centres undefined)
inactive: 786-0 85.3 µM | A549 > 100 µM | ACHN > 100 µM | CAKI-1 32.4 µM | COLO 205 87.5 µM | HL-60 39.2 µM | HOP-92 66.5 µM | KM12 > 100 µM | MCF7 > 100 µM | MDA-MB-231 > 100 µM | MOLT-4 65.9 µM | OVCAR-3 19.8 µM | PC-3 > 100 µM | SF-268 > 100 µM | SF-295 > 100 µM | SN12C > 100 µM | SR > 100 µM | UACC-257 82.2 µM

O=C1[C@@H](O)[C@@H]2CCCC[C@@]23CCCN13
inactive: 786-0 > 100 µM | A549 > 100 µM | ACHN > 100 µM | CAKI-1 > 100 µM | COLO 205 > 100 µM | HL-60 > 100 µM | HOP-92 36.6 µM | KM12 > 100 µM | MCF7 > 100 µM | MDA-MB-231 > 100 µM | MOLT-4 > 100 µM | PC-3 > 100 µM | SF-268 > 100 µM | SF-295 > 100 µM | SN12C > 100 µM | SNB-75 37.6 µM | SR > 100 µM | UACC-257 > 100 µM

CCOC(=O)NC(=O)c1cn(CC(=O)NCC(=O)NCC(=O)NCCCN2CCN(CCCNC(=O)CNC(=O)CNC(=O)Cn3cc(C(=O)NC(=O)OCC)c(=O)[nH]c3=O)CC2)c(=O)[nH]c1=O
inactive: 786-0 > 100 µM | A549 > 100 µM | ACHN > 100 µM | CAKI-1 > 100 µM | COLO 205 > 100 µM | HL-60 > 100 µM | HOP-92 > 100 µM | KM12 > 100 µM | MOLT-4 > 100 µM | OVCAR-3 > 100 µM | SF-268 > 100 µM | SF-295 > 100 µM | SN12C > 100 µM | SNB-75 > 100 µM | SR > 100 µM | UACC-257 > 100 µM

CCOC(=O)C(=CNc1ccc(F)c(F)c1)C(=O)OCC
inactive: 786-0 > 100 µM | A549 > 100 µM | ACHN > 100 µM | CAKI-1 > 100 µM | COLO 205 > 100 µM | HL-60 66.1 µM | HOP-92 > 100 µM | KM12 > 100 µM | MCF7 > 100 µM | MDA-MB-231 > 100 µM | MOLT-4 46 µM | OVCAR-3 > 100 µM | PC-3 67.6 µM | SF-268 > 100 µM | SN12C > 100 µM | SNB-75 > 100 µM | SR 39.2 µM | UACC-257 > 100 µM

Cc1ccc(S(=O)(=O)N2CC3OC(C)(C)OC3C2CO)cc1 (centres undefined)
inactive: 786-0 > 100 µM | A549 > 100 µM | ACHN > 100 µM | CAKI-1 > 100 µM | COLO 205 > 100 µM | HOP-92 > 100 µM | KM12 > 100 µM | MCF7 > 100 µM | MDA-MB-231 > 100 µM | MOLT-4 > 100 µM | OVCAR-3 > 100 µM | PC-3 > 100 µM | SF-268 > 100 µM | SF-295 > 100 µM | SN12C > 100 µM | SNB-75 > 100 µM | SR > 100 µM | UACC-257 > 100 µM

COc1cc2c(cc1OC)C1(c3ccccc3)ON=C(c3ccccc3)N1CS2 (centres undefined)
inactive: 786-0 > 100 µM | A549 > 100 µM | ACHN > 100 µM | CAKI-1 > 100 µM | COLO 205 > 100 µM | HL-60 16.1 µM | HOP-92 39.4 µM | KM12 > 100 µM | MOLT-4 16.1 µM | OVCAR-3 > 100 µM | SF-268 > 100 µM | SF-295 60.1 µM | SN12C > 100 µM | SNB-75 > 100 µM | SR 23.6 µM | UACC-257 > 100 µM

O=C(Nc1ccc(Sc2ccc(/N=N/c3c(O)c(S(=O)(=O)O)cc4cc(S(=O)(=O)O)ccc34)cc2)cc1)c1ccc(/N=N/c2c(O)ccc3c(S(=O)(=O)O)cc(S(=O)(=O)O)cc23)cc1
inactive: 786-0 37.6 µM | A549 28.4 µM | ACHN 29.4 µM | CAKI-1 43.8 µM | COLO 205 15.8 µM | HL-60 10.3 µM | HOP-92 78 µM | KM12 39.9 µM | MOLT-4 12.8 µM | OVCAR-3 19.8 µM | SF-268 41 µM | SF-295 62.7 µM | SN12C 42.2 µM | SNB-75 > 100 µM | SR 21.6 µM | UACC-257 11.2 µM

COc1ccc2c(=O)c([Se]c3coc4cc(OC)ccc4c3=O)coc2c1
inactive: 786-0 44.5 µM | A549 32.6 µM | ACHN 72.1 µM | CAKI-1 > 100 µM | COLO 205 > 100 µM | HL-60 40.4 µM | HOP-92 > 100 µM | KM12 41.1 µM | MOLT-4 51.8 µM | OVCAR-3 > 100 µM | SF-268 > 100 µM | SF-295 24.7 µM | SN12C 54.5 µM | SNB-75 20.8 µM | SR 44.1 µM | UACC-257 > 100 µM

COc1ccc(CN(O)C2C(CO)OC(n3cc(I)c(=O)[nH]c3=O)C2O)cc1 (centres undefined)
inactive: 786-0 > 100 µM | A549 > 100 µM | ACHN > 100 µM | CAKI-1 > 100 µM | COLO 205 > 100 µM | HL-60 > 100 µM | HOP-92 > 100 µM | KM12 > 100 µM | MOLT-4 > 100 µM | OVCAR-3 > 100 µM | SF-268 > 100 µM | SF-295 > 100 µM | SN12C > 100 µM | SNB-75 > 100 µM | SR > 100 µM | UACC-257 > 100 µM

Reference: ChEMBL document CHEMBL1201862, “PubChem BioAssay data set” (2004)
